Patent US20240246942A1, “KINASE INHIBITORS FOR THE TREATMENT OF NEURODEGENERATIVE DISEASES” (priority 2020, published 2024)

What was measured:
Assay in all cases: biochemical
[1] = target: T1, panel of 374 wild-type kinases (Homo sapiens, UniProt P05771); details: read-out: % Enzyme Activity (relative to DMSO controls), kinase PKCb1
T1 construct: purchased Reaction Biology Corporation

[2] = target: T2, panel of 374 wild-type kinases (Homo sapiens, UniProt P29597); details: read-out: % Enzyme Activity (relative to DMSO controls), kinase TYK2
T2 construct: purchased Reaction Biology Corporation

[3] = target: T3, panel of 374 wild-type kinases (Homo sapiens, UniProt P57078); details: read-out: % Enzyme Activity (relative to DMSO controls), kinase RIPK4
T3 construct: purchased Reaction Biology Corporation
T3 sequence (P57078 1-832): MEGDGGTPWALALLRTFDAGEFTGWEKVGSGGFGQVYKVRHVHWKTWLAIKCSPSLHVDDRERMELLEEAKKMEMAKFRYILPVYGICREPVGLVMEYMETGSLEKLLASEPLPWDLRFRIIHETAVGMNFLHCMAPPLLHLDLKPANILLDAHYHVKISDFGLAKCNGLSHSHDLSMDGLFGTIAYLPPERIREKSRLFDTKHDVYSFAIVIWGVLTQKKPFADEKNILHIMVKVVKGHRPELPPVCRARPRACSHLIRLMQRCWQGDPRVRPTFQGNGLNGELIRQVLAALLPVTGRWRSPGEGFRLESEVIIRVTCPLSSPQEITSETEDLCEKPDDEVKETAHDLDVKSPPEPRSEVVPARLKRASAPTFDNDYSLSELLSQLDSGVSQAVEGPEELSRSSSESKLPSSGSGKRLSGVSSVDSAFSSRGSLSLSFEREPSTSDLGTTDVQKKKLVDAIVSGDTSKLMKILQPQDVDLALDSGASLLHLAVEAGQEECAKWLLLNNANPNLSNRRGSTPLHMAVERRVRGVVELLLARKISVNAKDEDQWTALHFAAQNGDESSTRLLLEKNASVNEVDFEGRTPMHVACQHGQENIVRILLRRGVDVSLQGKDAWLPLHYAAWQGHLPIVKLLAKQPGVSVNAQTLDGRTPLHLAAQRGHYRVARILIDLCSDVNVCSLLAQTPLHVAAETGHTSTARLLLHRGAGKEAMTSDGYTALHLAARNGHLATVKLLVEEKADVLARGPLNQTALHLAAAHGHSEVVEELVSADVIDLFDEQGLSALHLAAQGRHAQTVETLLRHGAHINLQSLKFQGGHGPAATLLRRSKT

[4] = target: T4, panel of 374 wild-type kinases (Homo sapiens, UniProt Q14012); details: read-out: % Enzyme Activity (relative to DMSO controls), CAMK1a
T4 construct: purchased Reaction Biology Corporation

[5] = target: T5, panel of 374 wild-type kinases (Homo sapiens, UniProt Q15139); details: read-out: % Enzyme Activity (relative to DMSO controls), kinase PKCmu/PRKD1
T5 construct: purchased Reaction Biology Corporation
T5 sequence (Q15139 1-912): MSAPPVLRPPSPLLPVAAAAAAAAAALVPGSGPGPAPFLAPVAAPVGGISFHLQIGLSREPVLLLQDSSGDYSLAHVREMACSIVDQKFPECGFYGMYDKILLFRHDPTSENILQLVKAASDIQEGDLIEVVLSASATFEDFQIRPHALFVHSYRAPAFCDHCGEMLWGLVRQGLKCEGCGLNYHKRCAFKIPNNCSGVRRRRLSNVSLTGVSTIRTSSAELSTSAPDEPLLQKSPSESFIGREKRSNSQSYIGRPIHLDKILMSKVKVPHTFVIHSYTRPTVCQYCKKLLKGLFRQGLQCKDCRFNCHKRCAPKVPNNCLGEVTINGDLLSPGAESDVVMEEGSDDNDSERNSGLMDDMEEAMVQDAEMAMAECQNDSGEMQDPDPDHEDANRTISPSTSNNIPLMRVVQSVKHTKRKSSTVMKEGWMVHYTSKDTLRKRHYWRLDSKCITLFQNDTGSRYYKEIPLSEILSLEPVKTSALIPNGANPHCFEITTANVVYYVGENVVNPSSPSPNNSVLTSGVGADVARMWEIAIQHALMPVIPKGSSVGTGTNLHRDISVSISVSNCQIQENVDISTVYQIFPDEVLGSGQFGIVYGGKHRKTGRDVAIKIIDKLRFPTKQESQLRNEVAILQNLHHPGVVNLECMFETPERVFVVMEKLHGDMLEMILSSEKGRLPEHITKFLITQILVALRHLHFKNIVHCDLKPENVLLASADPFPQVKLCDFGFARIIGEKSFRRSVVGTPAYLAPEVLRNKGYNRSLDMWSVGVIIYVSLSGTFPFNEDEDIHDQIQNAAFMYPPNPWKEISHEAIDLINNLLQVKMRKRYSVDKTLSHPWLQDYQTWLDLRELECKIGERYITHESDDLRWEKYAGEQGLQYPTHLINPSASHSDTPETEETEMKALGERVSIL

[6] = target: T6, panel of 374 wild-type kinases (Homo sapiens, UniProt Q9NRH2); details: read-out: % Enzyme Activity (relative to DMSO controls), kinase SNRK
T6 construct: purchased Reaction Biology Corporation
T6 sequence (Q9NRH2 1-765): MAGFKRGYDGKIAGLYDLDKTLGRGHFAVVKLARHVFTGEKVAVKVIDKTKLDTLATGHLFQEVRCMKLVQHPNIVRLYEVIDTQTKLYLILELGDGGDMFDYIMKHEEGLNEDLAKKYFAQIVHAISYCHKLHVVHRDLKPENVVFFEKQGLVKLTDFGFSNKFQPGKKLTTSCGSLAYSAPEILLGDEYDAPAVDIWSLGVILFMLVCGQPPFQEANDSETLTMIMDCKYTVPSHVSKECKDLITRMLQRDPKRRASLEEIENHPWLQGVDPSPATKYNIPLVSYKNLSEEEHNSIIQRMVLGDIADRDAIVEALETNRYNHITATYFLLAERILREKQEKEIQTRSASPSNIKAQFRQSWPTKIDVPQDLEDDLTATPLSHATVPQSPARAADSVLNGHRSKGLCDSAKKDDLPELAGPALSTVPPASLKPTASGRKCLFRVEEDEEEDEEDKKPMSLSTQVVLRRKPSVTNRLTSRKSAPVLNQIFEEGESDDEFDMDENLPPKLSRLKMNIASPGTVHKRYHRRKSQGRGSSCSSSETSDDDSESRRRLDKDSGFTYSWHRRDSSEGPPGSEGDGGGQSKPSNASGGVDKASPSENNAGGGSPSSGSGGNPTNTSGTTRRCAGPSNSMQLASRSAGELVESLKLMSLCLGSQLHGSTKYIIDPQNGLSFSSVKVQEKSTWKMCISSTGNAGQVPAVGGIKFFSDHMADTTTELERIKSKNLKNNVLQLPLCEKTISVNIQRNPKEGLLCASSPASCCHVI

T4 sequence (Q14012 whole entry): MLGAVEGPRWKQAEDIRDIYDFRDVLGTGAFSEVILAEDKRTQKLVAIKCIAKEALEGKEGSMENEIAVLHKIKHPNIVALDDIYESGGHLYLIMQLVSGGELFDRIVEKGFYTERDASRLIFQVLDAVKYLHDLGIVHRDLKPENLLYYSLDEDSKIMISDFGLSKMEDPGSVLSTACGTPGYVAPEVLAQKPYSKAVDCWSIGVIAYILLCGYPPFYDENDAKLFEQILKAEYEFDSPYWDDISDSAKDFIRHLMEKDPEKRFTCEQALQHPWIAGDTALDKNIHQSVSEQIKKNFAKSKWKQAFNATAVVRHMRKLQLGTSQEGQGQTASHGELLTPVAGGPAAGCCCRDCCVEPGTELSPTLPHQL
T2 sequence (P29597 whole entry): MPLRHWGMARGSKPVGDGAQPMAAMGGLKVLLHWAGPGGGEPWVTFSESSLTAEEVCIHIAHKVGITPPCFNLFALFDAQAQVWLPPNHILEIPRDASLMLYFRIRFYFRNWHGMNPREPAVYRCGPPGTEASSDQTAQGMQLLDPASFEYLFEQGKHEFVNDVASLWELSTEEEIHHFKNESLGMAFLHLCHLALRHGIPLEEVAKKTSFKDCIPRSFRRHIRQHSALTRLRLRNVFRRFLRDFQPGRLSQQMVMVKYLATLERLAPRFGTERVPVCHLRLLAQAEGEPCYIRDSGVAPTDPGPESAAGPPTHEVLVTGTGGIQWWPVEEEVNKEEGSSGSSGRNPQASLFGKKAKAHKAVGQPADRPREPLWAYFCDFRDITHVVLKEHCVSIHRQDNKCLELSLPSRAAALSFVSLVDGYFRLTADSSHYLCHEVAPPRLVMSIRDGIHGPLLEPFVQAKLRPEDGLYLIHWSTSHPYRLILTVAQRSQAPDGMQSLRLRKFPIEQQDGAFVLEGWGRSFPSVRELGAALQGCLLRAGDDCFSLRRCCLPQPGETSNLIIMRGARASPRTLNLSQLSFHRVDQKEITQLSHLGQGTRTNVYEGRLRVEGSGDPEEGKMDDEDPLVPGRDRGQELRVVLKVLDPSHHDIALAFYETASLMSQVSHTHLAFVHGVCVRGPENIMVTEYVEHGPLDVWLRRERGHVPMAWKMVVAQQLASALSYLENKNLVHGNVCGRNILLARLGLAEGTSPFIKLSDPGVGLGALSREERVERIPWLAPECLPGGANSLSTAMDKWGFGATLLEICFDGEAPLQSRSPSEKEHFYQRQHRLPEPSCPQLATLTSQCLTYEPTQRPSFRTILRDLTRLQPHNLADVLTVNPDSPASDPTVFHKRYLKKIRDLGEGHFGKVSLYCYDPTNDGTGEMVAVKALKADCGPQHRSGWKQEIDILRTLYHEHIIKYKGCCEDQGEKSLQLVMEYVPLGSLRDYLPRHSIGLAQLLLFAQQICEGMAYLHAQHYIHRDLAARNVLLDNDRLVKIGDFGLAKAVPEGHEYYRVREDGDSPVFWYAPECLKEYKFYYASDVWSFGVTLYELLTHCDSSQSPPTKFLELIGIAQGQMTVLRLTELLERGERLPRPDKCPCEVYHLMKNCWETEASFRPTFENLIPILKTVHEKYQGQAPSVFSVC
T1 sequence (P05771 whole entry): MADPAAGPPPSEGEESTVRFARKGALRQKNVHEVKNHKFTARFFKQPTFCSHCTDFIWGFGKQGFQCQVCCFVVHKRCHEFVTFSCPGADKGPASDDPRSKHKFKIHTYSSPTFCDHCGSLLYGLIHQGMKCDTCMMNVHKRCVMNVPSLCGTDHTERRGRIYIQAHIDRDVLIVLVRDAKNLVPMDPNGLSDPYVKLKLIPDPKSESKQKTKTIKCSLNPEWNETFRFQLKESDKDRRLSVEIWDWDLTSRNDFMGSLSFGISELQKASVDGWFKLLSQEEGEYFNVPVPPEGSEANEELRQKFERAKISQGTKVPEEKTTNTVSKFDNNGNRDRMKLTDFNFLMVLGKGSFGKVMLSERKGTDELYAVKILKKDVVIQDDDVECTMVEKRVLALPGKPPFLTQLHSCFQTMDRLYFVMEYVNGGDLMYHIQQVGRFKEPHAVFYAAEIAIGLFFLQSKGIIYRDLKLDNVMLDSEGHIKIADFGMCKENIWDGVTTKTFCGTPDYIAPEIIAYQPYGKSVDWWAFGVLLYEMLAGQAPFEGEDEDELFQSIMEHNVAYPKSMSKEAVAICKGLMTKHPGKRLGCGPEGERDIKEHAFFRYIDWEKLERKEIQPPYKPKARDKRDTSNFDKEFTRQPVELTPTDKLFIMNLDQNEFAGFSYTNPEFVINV

| Compound | remaining activity at 5 µM [1] | remaining activity at 5 µM [2] | remaining activity at 5 µM [3] | remaining activity at 5 µM [4] | remaining activity at 5 µM [5] | remaining activity at 5 µM [6] | remaining activity at 10 µM ([1]; 10 uM) | remaining activity at 10 µM ([2]; 10 uM) | remaining activity at 10 µM ([3]; 10 uM) | remaining activity at 10 µM ([4]; 10 uM) | remaining activity at 10 µM ([5]; 10 uM) | remaining activity at 10 µM ([6]; 10 uM) |
| --- | --- | --- | --- | --- | --- | --- | --- | --- | --- | --- | --- | --- |
| O=C(Nc1cnn(-c2csc(C(=O)NC3COC3)c2)c1)Nc1ccccc1Cl [Compound 17, 4-(4-(3-(2-chlorophenyl)ureido)-1H-pyrazol-1-yl)-N-(oxetan-3-yl)thiophene-2-carboxamide] | 102% | 95.9% | 89.2% | 87.1% | 114% | 96.8% | – | – | – | – | – | – |
| Cc1sc(C(=O)NC2COC2)cc1-n1cc(NC(=O)Nc2c(F)cccc2Cl)cn1 [Compound 27, 4-(4-(3-(2-chloro-6-fluorophenyl)ureido)-1H-pyrazol-1-yl)-5-methyl-N-(oxetan-3-yl)thiophene-2-carboxamide] | – | – | – | – | – | – | 111% | 114% | 103% | 115% | 93.3% | 102% |
| O=C(Nc1cnn(-c2csc(C(=O)NC3COC3)c2)c1)Nc1c(F)cccc1Cl [Compound 25, 4-(4-(3-(2-chloro-6-fluorophenyl)ureido)-1H-pyrazol-1-yl)-N-(oxetan-3-yl)thiophene-2-carboxamide] | 100% | 89.3% | 96.7% | 98% | 90.7% | 98.8% | – | – | – | – | – | – |
